Results taken from patent US20240246920A1, “TRIAZOLE DERIVATIVES WITH ANTIFUNGAL ACTIVITY” (King's College London, priority 2020, published 2024).
≈ marks a conversion by molar mass, not a printed value.

Columns and labels:
C. auris 8984 = experiment: Candida panel MIC, serial dilution in 96-well plates; assay type: cell-based, Candida auris; details: Candidozyma auris, 8984, read-out: MIC C. auris 8984
Experimental: (§1) The minimum inhibitory concentration of test compounds were determined in a panel of Candida species (see Table 4 below), using the a serial dilution method in 96-well plates using the following protocol.
(§2) Starter cultures of fungal strains to be tested were grown in 3 mL of RPMI 2% glucose media incubated at 37° C. with shaking at 200 rpm overnight. The culture media used was 900 mL H2O; 10.4 g RPMI 1640 (with L-glutamine and a pH indicator but without bicarbonate); 34.5 g MOPS and 18 g glucose. The pH of the media was adjusted to 7.0 with 1 M sodium hydroxide.
(§3) Solutions of the compound to be tested were prepared by dissolving the compound in DMSO and subsequently into media to the desired concentrations. […] The last two rows of each plate were control rows containing the culture media alone and the media plus fungi.
(§4) The fungi starter cultures were diluted 1:10 in water in cuvettes. This was then further diluted to an optical density (OD600) of 0.01 in media. 100 μL of the fungi was added to each well giving a starting concentration of fungus of 0.5-5×10^5/mL. One species of fungus was used on each plate. The plates were then held at 37° C. for 24 hours.
(§5) A plate reader was used to measure growth in each well at OD530 nm and the MIC was determined for each test compound. The MIC is defined as the lowest concentration giving rise to inhibition of ≥50% of that of the drug-free control well containing the fungus and media.
(§6) The Candida auris strains shown in Table 7 were either taken from the National Collection of Pathogenic Fungi (NCPF) or collected as part of ongoing surveillance studies. The strains were characterised as follows.

C. auris 8971 = experiment: as above; assay type: cell-based, Candida auris; details: Candidozyma auris, 8971, read-out: MIC C. auris 8971
Experimental: as §1, §2, §3, §4, §5, §6

C. auris 8977 = experiment: as above; assay type: cell-based, Candida auris; details: Candidozyma auris, 8977, read-out: MIC C. auris 8977
Experimental: as §1, §2, §3, §4, §5, §6

Candida auris TDG2506 = experiment: microbe, parasite or virus in culture; assay type: cell-based; details: Candidozyma auris, TDG2506, read-out: MIC C. auris 2506
Experimental: as §1, §2, §3, §4, §5, §6

Candida auris TDG2211 = experiment: microbe, parasite or virus in culture; assay type: cell-based; details: Candidozyma auris, TDG2211, read-out: MIC C. auris 2211
Experimental: as §1, §2, §3, §4, §5, §6

SMILES	MIC (C. auris 8984)	MIC (C. auris 8971)	MIC (C. auris 8977)	MIC (Candida auris TDG2506)	MIC (Candida auris TDG2211)
OC(CN1CCC(Nc2ccc(OCCN3CCOCC3)cc2)CC1)(Cn1cncn1)c1ccc(F)cc1F (stereo not drawn) [Compound number 6, 2-(2,4-Difluorophenyl)-1-(4-((4-(2-morpholinoethoxy)phenyl)amino)piperidin-1-yl)-3-(1H-1,2,4-triazol-1-yl)propan-2-ol]	0.125 µg/mL (≈ 0.23 µM)	0.03 µg/mL (≈ 0.0553 µM)	0.06 µg/mL (≈ 0.111 µM)	0.25 µg/mL (≈ 0.461 µM)	0.25 µg/mL (≈ 0.461 µM)
OC(CN1CCC(Nc2ccc(Cc3ccccc3)cc2)CC1)(Cn1cncn1)c1ccc(F)cc1F (stereo not drawn) [Compound number 11, 1-(4-((4-benzylphenyl)amino)piperidin-1-yl)-2-(2,4-difluorophenyl)-3-(1H-1,2,4-triazol-1-yl)propan-2-ol]	0.125 µg/mL (≈ 0.248 µM)	≤ 0.125 µg/mL	≤ 0.125 µg/mL	0.125 µg/mL (≈ 0.248 µM)	≤ 0.125 µg/mL
OC(CN1CCC(N2CCC(Nc3ccc(Cc4ccccc4)cc3)CC2)CC1)(Cn1cncn1)c1ccc(F)cc1F (stereo not drawn) [Compound number 12, 1-(4-((4-benzylphenyl)amino)-[1,4′-bipiperidin]-1′-yl)-2-(2,4-difluorophenyl)-3-(1H-1,2,4-triazol-1-yl)propan-2-ol]	≤ 0.125 µg/mL	≤ 0.125 µg/mL	≤ 0.125 µg/mL	≤ 0.125 µg/mL	≤ 0.125 µg/mL
OC(CN1CCC2(CCC(Nc3ccc(Cc4ccccc4)cc3)CC2)C1)(Cn1cncn1)c1ccc(F)cc1F (stereo not drawn) [Compound number 13, 1-(8-((4-benzylphenyl)amino)-2-azaspiro[4.5]decan-2-yl)-2-(2,4-difluorophenyl)-3-(1H-1,2,4-triazol-1-yl)propan-2-ol]	≤ 0.003 µg/mL	≤ 0.125 µg/mL	≤ 0.125 µg/mL	≤ 0.125 µg/mL	≤ 0.125 µg/mL
OC(CN1CCC2(CCC(Nc3ccc(OCCN4CCOCC4)cc3)CC2)C1)(Cn1cncn1)c1ccc(F)cc1F (stereo not drawn) [Compound number 87, 2-(2,4-difluorophenyl)-1-(8-((4-(2-morpholinoethoxy)phenyl)amino)-2-azaspiro[4.5]decan-2-yl)-3-(1H-1,2,4-triazol-1-yl)propan-2-ol]	0.25 µg/mL (≈ 0.419 µM)	0.25 µg/mL (≈ 0.419 µM)	0.25 µg/mL (≈ 0.419 µM)	0.125 µg/mL (≈ 0.209 µM)	0.125 µg/mL (≈ 0.209 µM)
OC(CN1CCC(Nc2ccc(OCc3ccccc3)cc2)CC1)(Cn1cncn1)c1ccc(F)cc1F (stereo not drawn) [Compound number 90, 1-(4-((4-(benzyloxy)phenyl)amino)piperidin-1-yl)-2-(2,4-difluorophenyl)-3-(1H-1,2,4-triazol-1-yl)propan-2-ol]	≤ 0.003 µg/mL	≤ 0.003 µg/mL	≤ 0.003 µg/mL	≤ 0.003 µg/mL	≤ 0.003 µg/mL
